Assay results taken from patent US9505763B2, “Cancer treatment using BMP inhibitor” (Vanderbilt University, priority 2011, dated 2016).

How the values were obtained:
[1] = test system: Smad 1/5/8 activity; experiment: BRE-luciferase reporter assay; assay type: cell-based; conditions: H1299 cells; 10 μM Dorsomorphin or 1 μM DMH1, DMH2, LDN; 48 hours; vs DMSO
Description: Luciferase Assays. 10^6 H1299 cells were transfected with 2 μg of BRE-luciferace plasmid using a Nucleofector II. […] Cells were lysed with luciferase lysis buffer (Promega). Samples were added to luciferase assay substrate (Promega) and luminsescence measured by the TD-20/20 Luminometer (Turner Designs/Turner BioSystems, Sunnyvale, Calif.). Control samples included luciferase assay substrate alone and luciferase assay substrate plus 1× reporter lysis buffer.

[2] = test system: phosphorylated Smad 1/5/8; experiment: Western blot for phosphorylated Smad 1/5/8; assay type: cell-based; conditions: for level of phosphorylated Smad 1/5/8 expression: lung cancer cell lines (H1299, A549)
Description: (§1) Western Blot Analysis. Total cellular protein was prepared using RIPA buffer containing a protease inhibitor cocktail and protein concentration was measured using the BCA assay as described. In brief, protein was analyzed by SDS-PAGE, transferred to nitrocellulose (Schleicher and Schuell, Keene, N.H.). After blocking, the blots were incubated overnight at 4° C. with the appropriate primary antibody in Tris-buffered saline with 1% Tween (TBST) and 5% non-fat milk. Secondary antibodies were applied for 1 hour at room temperature. Specific proteins were detected using the enhanced chemiluminescence system (Amersham, Arlington Heights, Ill.). The primary antibodies that were used were rabbit monoclonal anti-pSmad 1/5/8 (Cell signaling Technology, Danvers Mass.) rabbit anti-actin, an affinity isolated antigen specific antibody (Sigma, Saint Louis, Mo.), rabbit monoclonal anti-Id1 and rabbit monoclonal anti-Id3 (Calbioreagents, San Mateo, Calif.).

[3] = test system: Id1, Id2, and Id3 expression; experiment: Quantitative RT-PCR for Id family members; assay type: cell-based; conditions: A549 and H1299 cell lines; 10 μM Dorsomorphin, 1 μM DMH1 or DMH2; 48 hours
Description: Quantification of Gene Expression. RNA was extracted using the RNeasy kit as per the manufacturer's instructions (Qiagen, Valencia, Calif.). DNAase was used to remove any DNA contamination. cDNA was generated using Advantage RT for PCR kit (BD BiosciencesClontech, Palo Alto, Calif.). Quantitative PCR was performed with the Stratagene Mx3005p (Agilent Technologies) and predesigned validated Taq-Man gene expression assays according to the manufacturer's specifications (Applied Biosystems, Foster City, Calif.). Reference numbers used are: GAPDH (Hs99999905_m1), ACVRL1 (alk1) (Hs00163543_m1), ACVR1A (alk2) (Hs00153836_m1), BMR1A (alk3) (Hs00831730_s1), BMPR1B (alk6) (Hs00176144_m1), Id1 (Hs00357821_g1), Id2 (Hs00747379_m1), and Id3 (Hs00171409-m1). Negative control included all reagents except cDNA. Expression was normalized to GAPDH using the formula […].

[4] = test system: Id1 and Id3 protein; experiment: Western blot for Id1 and Id3; assay type: cell-based; conditions: for protein levels of Id1 and Id3: A549 and H1299 cells
Description: as §1

[5] = biological target: T1, constitutively active alk3 (ca-alk3) (Homo sapiens, UniProt P36894, Q233D); experiment: BRE-luciferase with constitutively active alk3 in H1299 cells; assay type: cell-based; conditions: 1 μM antagonist
T1 construct: expressed in transfected cells; host or cells: H1299
T1 sequence (P36894 24-532 Q233D): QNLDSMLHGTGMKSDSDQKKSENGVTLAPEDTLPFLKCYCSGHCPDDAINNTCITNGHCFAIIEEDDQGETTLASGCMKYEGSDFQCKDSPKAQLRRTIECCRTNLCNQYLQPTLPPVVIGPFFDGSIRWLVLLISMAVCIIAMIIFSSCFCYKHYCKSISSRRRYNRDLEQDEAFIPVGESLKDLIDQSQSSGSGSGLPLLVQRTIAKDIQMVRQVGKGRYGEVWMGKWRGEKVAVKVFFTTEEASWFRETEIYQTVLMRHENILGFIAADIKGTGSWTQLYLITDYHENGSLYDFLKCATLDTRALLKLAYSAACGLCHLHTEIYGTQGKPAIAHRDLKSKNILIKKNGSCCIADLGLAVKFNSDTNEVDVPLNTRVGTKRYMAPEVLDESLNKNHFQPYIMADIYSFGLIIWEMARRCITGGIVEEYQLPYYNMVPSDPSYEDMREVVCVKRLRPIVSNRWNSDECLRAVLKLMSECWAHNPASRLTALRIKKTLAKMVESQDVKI
Description: (§2) To assess the effects of antagonists on a specific type I BMP receptor, 2 μg of constitutively active ca-alk3 and ca-alk6 expression vectors were co-transfected with the BRE-luciferase reporter into H1299 cells with Nucleofector II. Control cells were co-transfected with the pcDNA3 expression vector. After 48 hours the cells were treated with DMSO or a BMP receptor antagonist for 48 hours and luminescence was measured.

[6] = test system: constitutively active alk6 (ca-alk6); experiment: BRE-luciferase with constitutively active alk6 in H1299 cells; assay type: cell-based; conditions: 1 μM antagonist
Description: as §2

[7] = test system: A549 cells; experiment: Soft agar assay (anchorage independent growth); assay type: cell-based; conditions: A549 in soft agar; 1 μM; 2 weeks
Description: (§3) Soft Agar Assay. A 1% agar mixture was prepared in sterile double-distilled water, microwaved, and cooled to 40° C. in a water bath. DMEM was also incubated at 40° C. Equal amounts of each were mixed and 1 ml added to each well of a six well plate. The base agar was allowed to solidify. A 0.7% agar mixture was prepared then cooled to 40° degrees. Cells were trypsinized and counted. Cells (2500 cells per well) were placed in pre-warmed DMEM containing DMSO or DMH1 […]. The treated cells were then mixed with the 0.7% agar and 2 ml placed on top of the base agar. Once solidified, 1 ml of DMEM was placed on top of the agar. […]

[8] = test system: H1299 cells; experiment: Soft agar assay (anchorage independent growth); assay type: cell-based; conditions: H1299 in soft agar; 1 μM; 2 weeks
Description: as §3

[9] = test system: A549 cells; experiment: Ethidium bromide uptake cell death assay; assay type: cell-based; conditions: 48 hours, 10 μM Dorsomorphin or 1 μM selective antagonist
Description: Cell Death Assay: A549 and H1299 cells were plated in 6 well plates with 10^6 cells per well. Cells were treated with DMSO or a BMP receptor antagonist for 12 and 48 hours. Adherent and floating cells were harvested and incubated with 0.1 mg/ml of ethidium bromide. Immediately after staining approximately 100 cells were counted and the percentage of cells that took up ethidium bromide was determined.

[10] = biological target: T2, alk2 (Mus musculus, UniProt P37172); conditions: reported [26]; cited from earlier work
T2 construct: host or cells: C2C12
T2 sequence (P37172 21-509): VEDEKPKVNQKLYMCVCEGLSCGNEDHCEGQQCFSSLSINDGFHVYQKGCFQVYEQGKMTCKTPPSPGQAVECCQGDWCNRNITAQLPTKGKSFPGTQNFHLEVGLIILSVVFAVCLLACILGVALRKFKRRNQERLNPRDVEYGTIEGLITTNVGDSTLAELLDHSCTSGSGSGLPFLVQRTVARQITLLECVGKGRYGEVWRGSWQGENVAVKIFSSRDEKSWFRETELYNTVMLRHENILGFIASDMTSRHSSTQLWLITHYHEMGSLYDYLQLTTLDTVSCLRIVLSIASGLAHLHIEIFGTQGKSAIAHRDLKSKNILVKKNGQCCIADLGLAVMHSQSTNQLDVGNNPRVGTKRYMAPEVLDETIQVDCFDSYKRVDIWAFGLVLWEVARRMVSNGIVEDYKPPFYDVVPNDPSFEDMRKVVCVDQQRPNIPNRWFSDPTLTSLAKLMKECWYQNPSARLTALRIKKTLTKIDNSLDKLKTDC

[11] = biological target: T3, alk3 (Mus musculus, UniProt P36895); conditions: reported [26]; cited from earlier work
T3 construct: host or cells: C2C12
T3 sequence (P36895 24-532): as the sequence (P36894 24-532 Q233D) above, with S16L, S21P, A74T, L133V, I142V, R164G, D210Q, V373I counted along it

[12] = biological target: T4, alk6 (Mus musculus, UniProt P36898); conditions: reported [26]; cited from earlier work
T4 construct: host or cells: C2C12
T4 sequence (P36898 14-502): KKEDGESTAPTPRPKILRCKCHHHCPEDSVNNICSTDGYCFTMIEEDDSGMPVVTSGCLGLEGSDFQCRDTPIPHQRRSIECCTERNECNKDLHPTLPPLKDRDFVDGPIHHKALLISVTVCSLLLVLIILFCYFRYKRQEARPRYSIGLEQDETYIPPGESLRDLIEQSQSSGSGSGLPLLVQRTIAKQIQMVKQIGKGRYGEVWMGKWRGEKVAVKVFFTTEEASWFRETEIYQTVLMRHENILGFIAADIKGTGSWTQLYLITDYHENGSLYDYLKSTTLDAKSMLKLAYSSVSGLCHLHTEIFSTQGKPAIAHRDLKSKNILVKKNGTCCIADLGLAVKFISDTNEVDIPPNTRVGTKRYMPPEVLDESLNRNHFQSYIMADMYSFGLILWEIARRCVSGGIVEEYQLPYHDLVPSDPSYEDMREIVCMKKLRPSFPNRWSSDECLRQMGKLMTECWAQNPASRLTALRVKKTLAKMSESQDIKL

[13] = test system: AMP kinase; conditions: compared with Dorsomorphin and LDN; cited from earlier work
[14] = biological target: VEGF II (Homo sapiens, UniProt P35968); conditions: compared with Dorsomorphin and LDN; cited from earlier work
Sequence of VEGF II (P35968 20-1356): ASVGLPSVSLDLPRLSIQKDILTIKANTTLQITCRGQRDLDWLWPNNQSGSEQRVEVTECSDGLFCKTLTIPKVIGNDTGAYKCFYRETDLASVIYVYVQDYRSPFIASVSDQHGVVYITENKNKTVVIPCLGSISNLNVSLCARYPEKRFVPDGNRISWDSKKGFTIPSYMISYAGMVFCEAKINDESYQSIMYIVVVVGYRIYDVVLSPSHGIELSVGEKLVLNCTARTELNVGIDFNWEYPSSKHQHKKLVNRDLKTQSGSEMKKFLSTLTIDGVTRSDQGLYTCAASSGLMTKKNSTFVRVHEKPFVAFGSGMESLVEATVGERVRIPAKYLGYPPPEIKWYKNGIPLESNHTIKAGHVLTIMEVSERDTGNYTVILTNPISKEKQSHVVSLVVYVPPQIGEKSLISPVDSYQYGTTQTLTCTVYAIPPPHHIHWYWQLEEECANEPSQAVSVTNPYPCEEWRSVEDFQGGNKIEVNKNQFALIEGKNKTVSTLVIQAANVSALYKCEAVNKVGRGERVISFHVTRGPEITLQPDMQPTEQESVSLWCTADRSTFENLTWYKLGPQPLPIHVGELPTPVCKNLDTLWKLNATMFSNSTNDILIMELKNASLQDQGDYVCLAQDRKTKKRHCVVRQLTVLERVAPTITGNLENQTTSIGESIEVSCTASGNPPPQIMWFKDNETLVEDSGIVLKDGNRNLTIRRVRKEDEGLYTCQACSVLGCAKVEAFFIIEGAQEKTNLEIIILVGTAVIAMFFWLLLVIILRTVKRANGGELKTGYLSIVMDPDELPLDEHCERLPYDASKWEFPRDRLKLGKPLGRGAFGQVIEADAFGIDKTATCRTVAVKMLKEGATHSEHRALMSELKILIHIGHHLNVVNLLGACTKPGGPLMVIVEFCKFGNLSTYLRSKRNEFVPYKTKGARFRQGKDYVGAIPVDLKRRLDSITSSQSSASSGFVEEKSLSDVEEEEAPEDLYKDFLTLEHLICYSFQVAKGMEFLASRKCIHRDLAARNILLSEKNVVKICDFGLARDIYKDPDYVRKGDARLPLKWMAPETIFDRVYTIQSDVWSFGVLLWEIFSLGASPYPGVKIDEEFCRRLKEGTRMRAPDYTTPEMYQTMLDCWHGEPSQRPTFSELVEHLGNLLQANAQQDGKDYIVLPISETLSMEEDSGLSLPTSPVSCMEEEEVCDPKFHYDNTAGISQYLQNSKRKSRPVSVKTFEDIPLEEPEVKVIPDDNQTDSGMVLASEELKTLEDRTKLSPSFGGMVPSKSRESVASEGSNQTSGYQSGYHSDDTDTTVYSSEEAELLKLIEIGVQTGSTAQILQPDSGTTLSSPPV

[15] = biological target: T5, TGFβ receptor alk5 (Homo sapiens, UniProt P36897); conditions: compared with Dorsomorphin and LDN; cited from earlier work
T5 sequence (P36897 34-503): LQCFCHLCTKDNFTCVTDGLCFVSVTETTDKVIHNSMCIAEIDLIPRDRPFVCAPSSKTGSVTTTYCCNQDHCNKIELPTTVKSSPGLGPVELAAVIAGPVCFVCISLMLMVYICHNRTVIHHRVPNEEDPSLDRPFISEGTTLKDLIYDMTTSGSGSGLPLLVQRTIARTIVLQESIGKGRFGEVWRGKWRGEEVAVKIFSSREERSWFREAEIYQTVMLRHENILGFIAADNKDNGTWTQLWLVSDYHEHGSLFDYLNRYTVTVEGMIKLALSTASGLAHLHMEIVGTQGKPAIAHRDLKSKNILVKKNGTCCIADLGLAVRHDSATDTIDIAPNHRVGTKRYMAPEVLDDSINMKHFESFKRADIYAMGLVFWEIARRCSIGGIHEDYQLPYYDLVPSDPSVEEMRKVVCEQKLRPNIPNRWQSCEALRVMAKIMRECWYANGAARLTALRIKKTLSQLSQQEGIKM

[16] = biological target: platelet-derived growth factor receptor-β (Homo sapiens, UniProt P09619); conditions: compared with Dorsomorphin and LDN; cited from earlier work
Sequence of platelet-derived growth factor receptor-β (P09619 33-1106, species assumed): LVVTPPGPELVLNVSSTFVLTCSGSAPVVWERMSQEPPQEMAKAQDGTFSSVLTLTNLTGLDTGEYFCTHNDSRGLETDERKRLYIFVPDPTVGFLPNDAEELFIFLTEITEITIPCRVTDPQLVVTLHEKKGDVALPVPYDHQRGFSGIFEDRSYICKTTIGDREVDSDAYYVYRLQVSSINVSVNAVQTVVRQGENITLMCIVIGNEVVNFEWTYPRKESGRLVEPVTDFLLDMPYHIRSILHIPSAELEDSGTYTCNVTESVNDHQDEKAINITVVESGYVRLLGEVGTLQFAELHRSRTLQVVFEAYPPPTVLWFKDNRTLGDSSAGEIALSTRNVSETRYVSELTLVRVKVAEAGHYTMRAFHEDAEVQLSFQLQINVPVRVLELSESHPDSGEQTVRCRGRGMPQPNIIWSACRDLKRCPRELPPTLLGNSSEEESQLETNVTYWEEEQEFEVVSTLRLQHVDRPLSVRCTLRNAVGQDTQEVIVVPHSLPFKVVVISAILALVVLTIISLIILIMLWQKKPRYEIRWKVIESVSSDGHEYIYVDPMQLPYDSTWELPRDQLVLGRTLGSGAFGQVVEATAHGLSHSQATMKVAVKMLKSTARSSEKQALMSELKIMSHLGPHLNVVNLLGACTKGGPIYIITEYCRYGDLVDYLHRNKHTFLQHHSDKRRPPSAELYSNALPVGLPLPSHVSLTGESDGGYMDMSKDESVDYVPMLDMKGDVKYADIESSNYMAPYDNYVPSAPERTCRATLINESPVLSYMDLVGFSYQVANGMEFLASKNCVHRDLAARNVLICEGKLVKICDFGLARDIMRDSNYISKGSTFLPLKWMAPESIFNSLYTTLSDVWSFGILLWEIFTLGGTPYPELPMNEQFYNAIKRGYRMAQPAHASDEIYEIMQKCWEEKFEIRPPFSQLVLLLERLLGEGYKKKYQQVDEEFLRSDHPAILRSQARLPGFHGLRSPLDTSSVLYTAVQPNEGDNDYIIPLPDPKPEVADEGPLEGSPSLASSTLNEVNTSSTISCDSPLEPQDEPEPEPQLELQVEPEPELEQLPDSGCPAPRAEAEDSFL

[17] = test system: A549 cells; experiment: Cell counts after 7 days; assay type: cell-based; conditions: DMEM 5% FCS, 10 μM Dorsomorphin or 1 μM DMH1, DMH2, LDN
Description: (§4) Cell Counts. A549 and H1299 cells were plated into 6 well plates with 100,000 cells per well. Cells were treated with DMSO or a BMP receptor antagonist for 7 days. The cells were detached with trypsin, stained with trypan blue, and the number of live cells counted using a hemacytometer.

[18] = test system: H1299 cells; experiment: Cell counts after 7 days; assay type: cell-based; conditions: H1299, DMEM 5% FCS, 10 μM Dorsomorphin or 1 μM DMH1, DMH2, LDN
Description: as §4

[19] = test system: A549 cells; experiment: Clonogenic growth assay; assay type: cell-based; conditions: 1 μM, 2 weeks
Description: (§5) Clonigenic Growth Assay. A549 and H1299 cells were plated into 6 well plates with 500 cells per well. The next day the cells were treated with DMSO or a BMP receptor antagonist for 2 weeks. The colonies were stained with Diff-Quick (IMEB Inc. San Marcos, Calif.) and the total number of colonies per well counted.

[20] = test system: H1299 cells; experiment: Clonogenic growth assay; assay type: cell-based; conditions: 1 μM, 2 weeks
Description: as §5

With CC(C)Oc1ccc(-c2cnc3c(-c4ccnc5ccccc45)cnn3c2)cc1 [DMH1] as the compound, how does the “Smad 1/5/8 activity (BRE-luciferase activity)” value [1] read?
Its value is “significant decrease”.

What about the “level of phosphorylated Smad 1/5/8 expression” value [2] of the same compound?
The value was “decreased”.

What about the “Id1, Id2, and Id3 expression (mRNA)” value [3] of the same compound?
The value was “significantly decreased”.

And the “protein levels of Id1 and Id3” value [4]?
The value was “decrease”.

And the “reduction of Id1 protein expression (comparison)” value ([4]; H1299 and A549 cells, 1 μM)?
Its value is “greater reduction of Id1 in H1299 cells compared to A549 cells”.

And the “inhibition of ca-alk3 activity (BRE-luciferase)” value [5]?
Its value is “significant inhibition”.

And the “inhibition of ca-alk6 activity (BRE-luciferase)” value [6]?
The value was “partially inhibited alk6 but not as effectively as DMH2”.

What about the anchorage independent growth [7] of the same compound?
Its anchorage independent growth is “significantly reduced”.

What about the anchorage independent growth [8] of the same compound?
The anchorage independent growth was “significantly reduced”.

What about the “cell death (percentage of cells taking up ethidium bromide)” value [9] of the same compound?
The value was “significant increase in cell death”.

And the “inhibition of alk2 activity” value [10]?
The value was “inhibited”.

What about the “inhibition of alk3 activity” value [11] of the same compound?
Its value is “inhibited”.

What about the “inhibition of alk6 activity” value [12] of the same compound?
The value was “negligible inhibitory effects”.

And the “activity for AMP kinase (comparison)” value [13]?
The value was “less activity”.

What about the “activity for VEGF II (comparison)” value [14] of the same compound?
Its value is “less activity”.

And the “activity for TGFβ receptor alk5 (comparison)” value [15]?
Its value is “less activity”.

And the “activity for platelet-derived growth factor receptor-β (comparison)” value [16]?
Its value is “less activity”.

What does the source list for c1ccc2c(-c3cnn4cc(-c5ccc(N6CCNCC6)cc5)cnc34)ccnc2c1 [LDN, LDN-193189, reference compound]?
Smad 1/5/8 activity (BRE-luciferase activity) [1]: significant decrease; phosphorylated Smad 1/5/8 expression ([2]; A549 cells): decrease; level of phosphorylated Smad 1/5/8 expression [2]: decreased; protein levels of Id1 and Id3 [4]: decrease; inhibition of ca-alk6 activity (BRE-luciferase) [6]: very similar to that of DMH2; cell growth (number of cells) [17]: more growth inhibition than DMH1; cell growth (number of cells) [18]: more growth inhibition than DMH1; clonogenic growth [19]: inhibited more by DMH2 and LDN than DMH1; clonogenic growth [20]: inhibited more by DMH2 and LDN than DMH1; inhibition of alk2 activity [10]: effectively inhibits; inhibition of alk3 activity [11]: effectively inhibits; inhibition of alk6 activity [12]: effectively inhibits; activity for AMP kinase (comparison) [13]: less AMP kinse activity than Dorsomorphin
